Measurements taken from ChEMBL document CHEMBL4834409 (J Med Chem, 2021).
Active and inactive are the calls of the source. No cut-off for these calls is given here.

Legend:
[1] = target: T1, Melatonin receptor type 1A (Homo sapiens, UniProt P48039); experiment: Displacement of 2-[125l]-lodomelatonin from human MT1 expressed in CHO cell membrane incubated for 150 mins by radioligand binding assay; assay type: cell membranes
[2] = target: T2, Melatonin receptor type 1B (Homo sapiens, UniProt P49286); experiment: Displacement of 2-[125l]-lodomelatonin from human MT2 expressed in CHO cell membrane incubated for 150 mins by radioligand binding assay; assay type: cell membranes
T2 sequence (P49286 whole entry): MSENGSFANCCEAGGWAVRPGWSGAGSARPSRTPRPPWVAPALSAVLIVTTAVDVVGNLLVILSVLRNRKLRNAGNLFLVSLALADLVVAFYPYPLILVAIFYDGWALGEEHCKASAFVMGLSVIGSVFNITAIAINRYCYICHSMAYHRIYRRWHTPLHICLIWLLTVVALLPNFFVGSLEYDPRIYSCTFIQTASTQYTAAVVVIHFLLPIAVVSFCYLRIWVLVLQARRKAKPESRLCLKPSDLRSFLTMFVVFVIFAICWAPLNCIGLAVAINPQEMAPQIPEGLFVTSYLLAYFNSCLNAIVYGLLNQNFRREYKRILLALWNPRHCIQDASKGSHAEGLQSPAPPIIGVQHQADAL

[3] = Clearance in human hepatic microsomes at 1 umol/L incubated for 20 mins in presence of NADPH generating system by HPLC-UV analysis; assay type: ADME, Microsome; conditions: liver microsomes, dose 1 µmol/L, read-out: CLH
[4] = Clearance in rat hepatic microsomes at 1 umol/L incubated for 20 mins in presence of NADPH generating system by HPLC-UV analysis; assay type: ADME, Microsome; conditions: liver microsomes, dose 1 µmol/L, read-out: CLH
[5] = Oral bioavailability in Sprague-Dawley rat at 1 mg/kg administered as casette dosing by LC/MS/MS analysis; assay type: ADME, organism-based; conditions: in vivo
[6] = target: T1, Melatonin receptor type 1A; experiment: Displacement of 2-[125l]-lodomelatonin from human MT1 expressed in CHO cell membrane at 100 nM incubated for 150 mins by radioligand binding assay relative to control; assay type: cell membranes
[7] = target: T3, Melatonin receptor type 1B (Homo sapiens) (UniProt P49286); experiment: Displacement of 2-[125l]-lodomelatonin from human MT2 expressed in CHO cell membrane at 100 nM incubated for 150 mins by radioligand binding assay relative to control; assay type: cell membranes
T3 sequence (whole entry): T2 sequence (P49286 whole entry)

[8] = Drug concentration in Sprague-Dawley rat brain at 0.1 mg/kg, po after 60 mins by LC/MS/MS analysis; assay type: ADME, organism-based; conditions: read-out: Ct
[9] = Drug concentration in Sprague-Dawley rat plasma at 0.1 mg/kg, po after 60 mins by LC/MS/MS analysis; assay type: ADME, organism-based
[10] = Ratio of drug concentration in brain to plasma in Sprague-Dawley rat at 0.1 mg/kg, po after 60 mins by LC/MS/MS analysis; assay type: ADME, organism-based; conditions: read-out: BPR
[11] = target: T1, Melatonin receptor type 1A; experiment: Agonist activity at human MT1 expressed in CHO-K1 cells assessed as inhibition of forskolin-induced cAMP accumulation incubated for 30 mins by AlphaScreen assay; assay type: functional, cell-based
[12] = target: T2, Melatonin receptor type 1B; experiment: Agonist activity at human MT2 expressed in CHO-K1 cells assessed as inhibition of forskolin-induced cAMP accumulation incubated for 30 mins by AlphaScreen assay; assay type: functional, cell-based
[13] = tested on: Felis catus; experiment: Hypnotic activity in cats assessed as increase in total sleep time at 10 mg/kg, po after 8 hrs by EEG analysis; assay type: functional, organism-based
[14] = target: T1, Melatonin receptor type 1A; experiment: Binding affinity to human MT1 expressed in CHO cells; assay type: cell-based
[15] = target: T2, Melatonin receptor type 1B; experiment: Binding affinity to human MT2 expressed in CHO cells; assay type: cell-based
[16] = Oral bioavailability in Sprague-Dawley rat at 1 mg/kg by LC/MS/MS analysis; assay type: ADME, organism-based; conditions: in vivo
[17] = Drug concentration in Sprague-Dawley rat brain at 1 mg/kg, po after 60 mins by LC/MS/MS analysis; assay type: ADME, organism-based; conditions: read-out: Ct
[18] = Drug concentration in Sprague-Dawley rat plasma at 1 mg/kg, po after 60 mins by LC/MS/MS analysis; assay type: ADME, organism-based
[19] = Ratio of drug concentration in brain to plasma in Sprague-Dawley rat at 1 mg/kg, po after 60 mins by LC/MS/MS analysis; assay type: ADME, organism-based; conditions: read-out: BPR

T1 sequence (P48039 whole entry): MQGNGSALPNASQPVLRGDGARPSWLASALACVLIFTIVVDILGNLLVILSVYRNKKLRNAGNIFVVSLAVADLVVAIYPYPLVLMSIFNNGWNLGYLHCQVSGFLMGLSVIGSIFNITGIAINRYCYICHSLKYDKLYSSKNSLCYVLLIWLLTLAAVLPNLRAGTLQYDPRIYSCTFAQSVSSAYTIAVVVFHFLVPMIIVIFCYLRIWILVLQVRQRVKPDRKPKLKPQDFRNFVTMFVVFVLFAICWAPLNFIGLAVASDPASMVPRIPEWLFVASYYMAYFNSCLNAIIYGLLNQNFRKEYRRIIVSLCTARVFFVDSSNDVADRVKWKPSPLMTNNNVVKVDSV

Ki [1] | Ki [2] | microsomal CLint at 1 µM [3] | microsomal CLint at 1 µM [4] | bioavailability [5] | Structure (SMILES) | also measured
0.3 nM | 0.35 nM | 23 µL/min/mg | 79 µL/min/mg | 13.7% | CCC(=O)NCCC1CCc2ccc3nn(C)cc3c21 (centres undefined) | 
1.3 nM | 0.23 nM |  |  |  | CC(=O)NCCC1CCc2ccc3nc(-c4ccccc4)oc3c21 (centres undefined) | 
0.2 nM | 1.4 nM | 14 µL/min/mg | 42 µL/min/mg | 14.3% | CC(=O)NCCC1CCc2ccn3nc(C)cc3c21 (centres undefined) | 
4.4 nM | 0.12 nM |  |  |  | CC(=O)NCCC1CCc2ccc3nc(Cc4ccccc4)oc3c21 (centres undefined) | 
0.17 nM | 0.95 nM | 20 µL/min/mg | 84 µL/min/mg |  | CCC(=O)NCCC1CCc2ccn3nc(C)cc3c21 (centres undefined) | 
 |  |  |  |  | CCOC(=O)c1c(C)nn2ccc3c(c12)C(CCNC(C)=O)CC3 (centres undefined) | inhibition [6]: < 50%; inhibition [7]: < 50%
0.45 nM | 0.073 nM |  |  |  | CC(=O)NCCC1CCc2ccc3ncoc3c21 (centres undefined) | 
23 nM | 6.1 nM |  |  |  | CC(=O)NCC[C@H]1CCc2ccc3nc(C)oc3c21 | 
0.031 nM | 0.07 nM |  |  |  | CC(=O)NCC[C@@H]1CCc2ccc3nc(C)oc3c21 | concentration at 1 h [8]: 1.4 ng/g; concentration at 1 h [9]: 2.9 ng/mL; Kp at 1 h [10]: 0.48; EC50 [11]: 0.015 nM; EC50 [12]: 0.51 nM; Activity [13]: Active
0.39 nM | 0.15 nM |  |  |  | CC(=O)NCCC1CCc2ccc3nc(C4CC4)oc3c21 (centres undefined) | 
0.45 nM | 0.15 nM |  |  |  | COc1nc2ccc3c(c2o1)C(CCNC(C)=O)CC3 (centres undefined) | 
0.027 nM | 0.058 nM | 41 µL/min/mg | 379 µL/min/mg | 3.2% | CCC(=O)NCCC1CCc2ccc3nc(C)sc3c21 (centres undefined) | 
0.22 nM | 0.16 nM |  |  |  | CCc1nc2ccc3c(c2o1)C(CCNC(C)=O)CC3 (centres undefined) | 
0.067 nM | 0.13 nM |  | 34 µL/min/mg | 18.5% | CC(=O)NCCC1CCc2ccc3nc(C)oc3c21 (racemic) | 
 |  | 51 µL/min/mg | 126 µL/min/mg |  | CCC(=O)NCC[C@@H]1CCc2ccc3c(c21)CCO3 [RAMELTEON] | Ki [14]: 0.014 nM; Ki [15]: 0.112 nM; bioavailability [16]: 8.5%; concentration at 1 h [17]: 17 ng/g; concentration at 1 h [18]: 15 ng/mL; Kp at 1 h [19]: 1.1
0.067 nM | 0.088 nM | 29 µL/min/mg | 96 µL/min/mg | 6.8% | CCC(=O)NCCC1CCc2ccc3nc(C)oc3c21 (centres undefined) | 
0.35 nM | 0.75 nM | 5 µL/min/mg | 44 µL/min/mg | 20.9% | CC(=O)NCCC1CCc2ccc3nn(C)cc3c21 (centres undefined) | 
1.2 nM | 1.1 nM |  |  |  | CC(=O)NCCC1CCc2ccc3nc(CO)oc3c21 (centres undefined) | 
9.3 nM |  |  |  |  | CC(=O)NCCC1CCc2ccn3nc(C)c(C)c3c21 (centres undefined) | inhibition [7]: < 50%
0.037 nM | 0.086 nM | 45 µL/min/mg | 188 µL/min/mg | 4.8% | CC(=O)NCCC1CCc2ccc3nc(C)sc3c21 (centres undefined) | 
